The text below walks through data of ChEMBL document CHEMBL1143344, “Novel DNA-directed alkylating agents: design, synthesis and potent antitumor effect of phenyl N-mustard-9-anilinoacridine conjugates via a carbamate or carbonate linker” (Bioorg Med Chem, 2009).

Assay [1] concerns CCRF-CEM. Briefly: Ratio of IC50 for vinblastine-resistant human CCRF-CEM cells to IC50 for human CCRF-CEM cells. Format: functional.
The test system of assay [2] is HCT-116. The assay can be described thus: Cytotoxicity against human HCT116 cells after 72 hrs by SRB assay. The settings on record: HCT-116, 72 h. Format: functional, cell-based. In general terms: Sulforhodamine B stains cellular protein and so reports cell mass.
Assay [3] relates to MX1. The assay can be described thus: Cytotoxicity against human MX1 cells after 72 hrs by SRB assay. Format: functional, cell-based. The note with it: MX1, 72 h.
Assay [4] has as its system CCRF-CEM. Briefly: Cytotoxicity against vinblastine-resistant human CCRF-CEM cells after 72 hrs by XTT assay. Format: functional, cell-based.
Assay [5] has as its system CCRF-CEM. Briefly: Cytotoxicity against taxol-resistant human CCRF-CEM cells after 72 hrs by XTT assay. Format: functional, cell-based.
For assay [6], the system named is CCRF-CEM. The assay can be described thus: Ratio of IC50 for taxol-resistant human CCRF-CEM cells to IC50 for human CCRF-CEM cells. Format: functional.
Assay [7] relates to CCRF-CEM. The assay can be described thus: Cytotoxicity against human CCRF-CEM cells after 72 hrs by XTT assay. Format: functional, cell-based. (Formazan colour is commonly taken as a measure of viable cells.)

In the case of `COc1ccc(Nc2c3ccccc3nc3ccccc23)cc1NC(=O)Oc1ccc(N(CCCl)CCCl)cc1`, the entries for the “Ratio IC50” value in assay [1] and in assay [6] were 1.4 and 1.9, respectively. Further, the IC50 in assay [2] stood at 186 nM; in assay [3], 181 nM; in assay [4], 119 nM; in assay [5], 160 nM; in assay [7] (read-out: IC50), 85 nM.
As for `CC(=O)O[C@H]1C(=O)[C@@]2(C)[C@H]([C@H](OC(=O)c3ccccc3)[C@]3(O)C[C@H](OC(=O)[C@H](O)[C@@H](NC(=O)c4ccccc4)c4ccccc4)C(C)=C1C3(C)C)[C@]1(OC(C)=O)CO[C@@H]1C[C@@H]2O` [PACLITAXEL], the results for the “Ratio IC50” value in assay [1] and in assay [6] were 980 and 330, respectively. The IC50 in assay [2] was determined as 1.1 nM; in assay [3], 46 nM; in assay [4] it was 1270 nM; in assay [5] it was 429 nM; in assay [7] it was 3.1 nM.
In the case of `Cc1c(NC(=O)Oc2ccc(N(CCCl)CCCl)cc2)cccc1Nc1c2ccccc2nc2c(C)cccc12`, the “Ratio IC50” value is reported as 0.89 in assay [1] and 1.09 in assay [6]. Moreover, the 50% inhibitory concentration (IC50) is 320 nM in assay [2]; 181 nM in assay [3]; 142 nM in assay [4]; 174 nM in assay [5]; 160 nM in assay [7] (read-out: IC50).
Turning to `Cc1ccc(Nc2c3ccccc3nc3ccccc23)cc1NC(=O)Oc1ccc(N(CCCl)CCCl)cc1`, the “Ratio IC50” value turned out to be 2.1 in assay [1] and 2.8 in assay [6]. The IC50 in assay [2] was determined as 434 nM; in assay [3], 214 nM; in assay [4], 158 nM; in assay [5], 216 nM; in assay [7] (read-out: IC50), 76 nM.
In the case of `CC[C@]1(O)C[C@@H]2CN(CCc3c([nH]c4ccccc34)[C@@](C(=O)OC)(c3cc4c(cc3OC)N(C)[C@H]3[C@@](O)(C(=O)OC)[C@H](OC(C)=O)[C@]5(CC)C=CCN6CC[C@]43[C@@H]65)C2)C1` [VINBLASTINE], the results for the “Ratio IC50” value in assay [1] and in assay [6] were 679.5 and 106.2, respectively. Besides, the IC50 worked out at 1.1 nM in assay [2]; 2.2 nM in assay [3]; 496 nM in assay [4]; 78 nM in assay [5]; 0.73 nM in assay [7] (read-out: IC50).
As for `Nc1cc(CO)cc(Nc2c3ccccc3nc3ccccc23)c1`, the “Ratio IC50” value was determined as 2.7 in assay [1] and 0.8 in assay [6]. In addition, the results for the IC50 in assay [3], in assay [4] and in assay [5] were 3.5 nM, 1600 nM and 600 nM, respectively.
For the molecule `Cc1cccc2c(Nc3cc(COC(=O)Nc4ccc(N(CCCl)CCCl)cc4)cc(NC(=O)OC(C)(C)C)c3)c3ccccc3nc12`, the figures for the “Ratio IC50” value in assay [1] and in assay [6] were 1.9 and 4.5, respectively. Moreover, the IC50 was 2400 nM in assay [2]; 5930 nM in assay [3]; 1420 nM in assay [4]; 3360 nM in assay [5]; 750 nM in assay [7] (read-out: IC50).
For the molecule `CCOC(=O)Nc1cc(COC(=O)Nc2ccc(N(CCCl)CCCl)cc2)cc(Nc2c3ccccc3nc3ccccc23)c1`, the results for the IC50 in assay [3] and in assay [7] (read-out: IC50) were 597 nM and 85 nM, respectively.
On to `COc1ccc(NC(=O)Oc2ccc(N(CCCl)CCCl)cc2)cc1Nc1c2ccccc2nc2ccccc12`, for which the IC50 in assay [2] amounted to 709 nM; in assay [3], 1560 nM; in assay [4], 254 nM; in assay [5], 583 nM; in assay [7] (read-out: IC50), 541 nM. Further, the “Ratio IC50” value in assay [6] worked out at 1.08.
As for `OCc1cc(Nc2c3ccccc3nc3ccccc23)cc(OCCN(CCCl)CCCl)c1`, the “Ratio IC50” value in assay [1] is given as 4.9; in assay [6], 1.1. Besides, the IC50 came to 3.5 nM in assay [3], 34 nM in assay [4] and 7.5 nM in assay [5].
Turning to `COc1ccc(NC(=O)Oc2ccc(N(CCCl)CCCl)cc2)cc1Nc1c2ccccc2nc2c(C)cccc12`, the “Ratio IC50” value in assay [1] came out at 0.54; in assay [6] it was 1. Also, the IC50 is 841 nM in assay [2]; 338 nM in assay [3]; 110 nM in assay [4]; 210 nM in assay [5]; 205 nM in assay [7] (read-out: IC50).

A word on the IC50: it is the midpoint of a concentration-inhibition curve.
